The compounds below were run on Spodoptera littoralis (Egyptian cotton leafworm) (assay: Spodoptera littoralis cotton leaf disc spray test). Conditions: foliar, 72 h, 200 ppm spray on cotton leaf discs, L1 larvae, mortality, feeding behavior, growth regulation 3 days after treatment.
Assay type: in vivo
Description: This Example illustrates the insecticidal and acaricidal properties of compounds of formula (I). The tests were performed as follows:
Spodoptera littoralis (Egyptian cotton leafworm):
Cotton leaf discs were placed on agar in a 24-well microtiter plate and sprayed with test solutions at an application rate of 200 ppm. After drying, the leaf discs were infested with 5 L1 larvae. The samples were checked for mortality, feeding behavior, and growth regulation 3 days after treatment (DAT). The following compound gave at least 80% control of Spodoptera littoralis: A1, A2, A5, A6, A7, A8, A10, A11, A12, A13, A14, A15, A16, A17, A18, A19, A21, A22, A23, A24, A25, A30, A31, A32, A33, A34, A35, A39, A40, A41 A42, A43, A44, A45, A46, A47, A48, A49, A50, A51, A53, A54, A55, A59, A60, A61, A62. Heliothis virescens (Tobacco budworm): Eggs (0-24 h old) were placed in 24-well microtiter plate on artificial diet and treated with test solutions at an application rate of 200 ppm (concentration in well 18 ppm) by pipetting. After an incubation period of 4 days, samples were checked for egg mortality, larval mortality, and growth regulation. The following compound gave at least 80% control of Heliothis virescens: A1, A2, A3, A4, A5, A6, A7, A8, A10, A11, A12, A13, A14, A15, A16, A18, A19, A21, A22, A24, A25, A30, A31, A32, A33, A34, A35, A37, A38, A39, A40, A42, A43, A44, A45, A46, A47, A48, A49, A50, A51, A55, AA57, A58, A59, A60, A61, A62. Plutella xylostella (Diamond back moth): 24-well microtiter plate (MTP) with artificial diet was treated with test solutions at an application rate of 200 ppm (concentration in well 18 ppm) by pipetting. After drying, the MTP's were infested with L2 larvae (7-12 per well). After an incubation period of 6 days, samples were checked for larval mortality and growth regulation. The following compound gave at least 80% control of Plutella xylostella: A1, A2, A5, A6, A7, A8, A9, A10, A11, A12, A13, A14, A15, A16, A17, A18, A19, A20, A21, A22, A24, A25, A30, A31, A32, A33, A34, A35, A37, A38, A39, A40, A42, A43, A44, A45, A46, A47, A48, A49, A50, A51, A52, A53, A54, A55, A57, A58, A59, A60, A61, A62, B3. Diabrotica balteata (Corn root worm): A 24-well microtiter plate (MTP) with artificial diet was treated with test solutions at an application rate of 200 ppm (concentration in well 18 ppm) by pipetting. After drying, the MTP's were infested with L2 larvae (6-10 per well). After an incubation period of 5 days, samples were checked for larval mortality and growth regulation. The following compound gave at least 80% control of Diabrotica balteata: A1, A2, A5, A6, A7, A10, A11, A12, A13, A14, A15, A16, A17, A18, A19, A21, A22, A24, A25, A30, A31, A32, A33, A34, A35, A38, A39, A40, A42, A43, A44, A45, A46, A47, A48, A49, A50, A59, A60, A61, A62. Thrips tabaci (Onion thrips): Sunflower leaf discs were placed on agar in a 24-well microtiter plate and sprayed with test solutions at an application rate of 200 ppm. After drying, the leaf discs were infested with an […] population of mixed ages. After an incubation period of 7 days, samples were checked for mortality. The following compounds gave at least 80% control of Thrips tabaci: A1, A2, A5, A6, A7, A8, A10, A12, A13, A14, A15, A16, A17, A18, A19, A21, A24, A25, A30, A31, A32, A33, A34, A35, A39, A42, A43, A44, A45, A46, A47, A48, A49, A50, A51, A53, A54, A57, A58, A59, A60, A61, A62. Tetranychus urticae (Two-spotted spider mite): Bean leaf discs on agar in 24-well microtiter plates were sprayed with test solutions at an application rate of 200 ppm. After drying, the leaf discs are infested with mite populations of mixed ages. 8 days later, discs are checked for egg mortality, larval mortality, and adult mortality. […]
`CC1(NC(=O)c2ccc(C3=NOC(c4cc(Cl)cc(Cl)c4)(C(F)(F)F)C3)c3ccccc23)CSC1` (centres unmarked) [A1] showed a pest or weed control at 200 ppm of at least 80%. For `O=C(NC1CSC1)c1ccc(C2=NOC(c3cc(Cl)cc(Cl)c3)(C(F)(F)F)C2)c2ccccc12` (centres unmarked) [A2], the pest or weed control at 200 ppm was at least 80%. `Cc1cc(C2=NOC(c3cc(Cl)cc(Cl)c3)(C(F)(F)F)C2Br)ccc1C(=O)NC1(C)CSC1` (centres unmarked) [A5] was tested, and the pest or weed control at 200 ppm was at least 80%. In the case of `Cc1cc(C2=NOC(c3cc(Cl)cc(Cl)c3)(C(F)(F)F)C2Br)ccc1C(=O)NC1CSC1` (centres unmarked) [A6], the pest or weed control at 200 ppm is reported as at least 80%. Work on `Cc1cc(C2=NOC(c3cc(Cl)cc(Cl)c3)(C(F)(F)F)C2Br)ccc1C(=O)NC1C[S+]([O-])C1` (centres unmarked) [A7] yielded a pest or weed control at 200 ppm of at least 80%. With `Cc1cc(N2CC(c3cc(Cl)cc(Cl)c3)(C(F)(F)F)OC2=O)ccc1C(=O)NC1C[S+]([O-])C1` (centres unmarked) [A10] the pest or weed control at 200 ppm was at least 80%. `Cc1cc(N2CC(c3cc(Cl)cc(Cl)c3)(C(F)(F)F)OC2=O)ccc1C(=O)NC1CSC1` (centres unmarked) [A11] showed a pest or weed control at 200 ppm of at least 80%. In the case of `Cc1cc(C2=NN(C)C(c3cc(Cl)cc(Cl)c3)(C(F)(F)F)C2)ccc1C(=O)NC1(C)CSC1` (centres unmarked) [A12], the pest or weed control at 200 ppm is reported as at least 80%. Compound `Cc1cc(C2=NN(C)C(c3cc(Cl)cc(Cl)c3)(C(F)(F)F)C2)ccc1C(=O)NC1C[S+]([O-])C1` (centres unmarked) [A13] has a pest or weed control at 200 ppm of at least 80%. `Cc1cc(C2=NN(C)C(c3cc(Cl)cc(Cl)c3)(C(F)(F)F)C2)ccc1C(=O)NC1CSC1` (centres unmarked) [A14] showed a pest or weed control at 200 ppm of at least 80%. `O=C(NC1CS(=O)(=O)C1)c1ccc(C2=NOC(c3cc(Cl)cc(Cl)c3)(C(F)(F)F)C2)c2ccccc12` (centres unmarked) [A15] showed a pest or weed control at 200 ppm of at least 80%. With `O=C(NC1C[S+]([O-])C1)c1ccc(C2=NOC(c3cc(Cl)cc(Cl)c3)(C(F)(F)F)C2)c2ccccc12` (centres unmarked) [A16] the pest or weed control at 200 ppm was at least 80%. `Cc1cc(C2=NOC(c3cc(Cl)cc(Cl)c3)(C(F)(F)F)O2)ccc1C(=O)NC1CSC1` (centres unmarked) [A17] showed a pest or weed control at 200 ppm of at least 80%. Compound `Cc1cc(C2CC(c3cc(Cl)cc(Cl)c3)(C(F)(F)F)ON2C)ccc1C(=O)NC1C[S+]([O-])C1` (centres unmarked) [A18] has a pest or weed control at 200 ppm of at least 80%. `Cc1cc(C2CC(c3cc(Cl)cc(Cl)c3)(C(F)(F)F)ON2C)ccc1C(=O)NC1CS(=O)(=O)C1` (centres unmarked) [A19] was tested, and the pest or weed control at 200 ppm was at least 80%. In the case of `Cc1cc(C2CC(c3cc(Cl)cc(Cl)c3)(C(F)(F)F)ON2C)ccc1C(=O)NC1CSC1` (centres unmarked) [A21], the pest or weed control at 200 ppm is reported as at least 80%. `O=C(NC1CS(=O)(=O)C1)c1ccc(C2=NOC(c3cc(Cl)cc(Cl)c3)(C(F)(F)F)C2)c2nsnc12` (centres unmarked) [A22] was tested, and the pest or weed control at 200 ppm was at least 80%. `Cc1cc(C2=NOC(c3cc(Cl)cc(Cl)c3)(C(F)(F)F)C2Cl)ccc1C(=O)NC1CS(=O)(=O)C1` (centres unmarked) [A32] showed a pest or weed control at 200 ppm of at least 80%. `Cc1cc(C2=NOC(c3cc(Cl)cc(Cl)c3)(C(F)(F)F)C2Cl)ccc1C(=O)NC1(C)CSC1` (centres unmarked) [A33] gave a pest or weed control at 200 ppm of at least 80%. `Cc1cc(C2=NOC(c3cc(Cl)cc(Cl)c3)(C(F)(F)F)C2Cl)ccc1C(=O)NC1C[S+]([O-])C1` (centres unmarked) [A34] gave a pest or weed control at 200 ppm of at least 80%. In the case of `O=C(NC1CS(=O)(=O)C1)c1ccc(C2=NOC(c3cc(Cl)cc(Cl)c3)(C(F)(F)F)C2Br)c2ccccc12` (centres unmarked) [A42], the pest or weed control at 200 ppm is reported as at least 80%. Compound `CC1(NC(=O)c2ccc(C3=NOC(c4cc(Cl)cc(Cl)c4)(C(F)(F)F)C3Br)c3ccccc23)CSC1` (centres unmarked) [A43] has a pest or weed control at 200 ppm of at least 80%. In the case of `O=C(NC1C[S+]([O-])C1)c1ccc(C2=NOC(c3cc(Cl)cc(Cl)c3)(C(F)(F)F)C2Br)c2ccccc12` (centres unmarked) [A44], the pest or weed control at 200 ppm is reported as at least 80%. `Cc1cc(C2=NCC(c3cc(Cl)cc(Cl)c3)(C(F)(F)F)C2)ccc1C(=O)NC1CS(=O)(=O)C1` (centres unmarked) [A46] was tested, and the pest or weed control at 200 ppm was at least 80%. `Cc1cc(C2=NCC(c3cc(Cl)cc(Cl)c3)(C(F)(F)F)C2)ccc1C(=O)NC1(C)CSC1` (centres unmarked) [A47] gave a pest or weed control at 200 ppm of at least 80%. For `Cc1cc(C2=NCC(c3cc(Cl)cc(Cl)c3)(C(F)(F)F)C2)ccc1C(=O)NC1C[S+]([O-])C1` (centres unmarked) [A48], the pest or weed control at 200 ppm was at least 80%. Work on `Cc1cc(C2=NCC(c3cc(Cl)cc(Cl)c3)(C(F)(F)F)C2)ccc1C(=O)NC1CSC1` (centres unmarked) [A49] yielded a pest or weed control at 200 ppm of at least 80%. In the case of `Cc1cc(C2=NOC(c3cc(Cl)cc(Cl)c3)(C(F)(F)F)C2O)ccc1C(=O)NC1CS(=O)(=O)C1` (centres unmarked) [A51], the pest or weed control at 200 ppm is reported as at least 80%. In the case of `Cc1cc(C2=NOC(c3cc(Cl)cc(Cl)c3)(C(F)(F)F)C2O)ccc1C(=O)NC1C[S+]([O-])C1` (centres unmarked) [A53], the pest or weed control at 200 ppm is reported as at least 80%. `Cc1cc(C2=NOC(c3cc(Cl)cc(Cl)c3)(C(F)(F)F)C2O)ccc1C(=O)NC1CSC1` (centres unmarked) [A54] was tested, and the pest or weed control at 200 ppm was at least 80%. Work on `Cc1cc(C2=NOC(c3cc(Cl)cc(Cl)c3)(C(F)(F)F)/C2=N/O)ccc1C(=O)NC1CS(=O)(=O)C1` (centres unmarked) [A55] yielded a pest or weed control at 200 ppm of at least 80%. `Cc1cc(C2=NOC(c3cc(Cl)cc(Cl)c3)(C(F)(F)F)C2F)ccc1C(=O)NC1CS(=O)(=O)C1` (centres unmarked) [A59] was tested, and the pest or weed control at 200 ppm was at least 80%. In the case of `Cc1cc(C2=NOC(c3cc(Cl)cc(Cl)c3)(C(F)(F)F)C2F)ccc1C(=O)NC1(C)CSC1` (centres unmarked) [A60], the pest or weed control at 200 ppm is reported as at least 80%. With `Cc1cc(C2=NOC(c3cc(Cl)cc(Cl)c3)(C(F)(F)F)C2F)ccc1C(=O)NC1CSC1` (centres unmarked) [A61] the pest or weed control at 200 ppm was at least 80%. `Cc1cc(C2=NOC(c3cc(Cl)cc(Cl)c3)(C(F)(F)F)C2F)ccc1C(=O)NC1C[S+]([O-])C1` (centres unmarked) [A62] was tested, and the pest or weed control at 200 ppm was at least 80%.

Same assay, conditions: same protocol, 200 ppm
For `Cc1nc2c(C3=NOC(c4cc(Cl)cc(Cl)c4)(C(F)(F)F)C3)ccc(C(=O)NC3CS(=O)(=O)C3)c2o1` (centres unmarked) [A26], the “effect on mortality, feeding behavior, or growth regulation” value (shortened to “effect on mortality, feeding behavior”) was “little or no effect”. With `Cc1nc2c(C3=NOC(c4cc(Cl)cc(Cl)c4)(C(F)(F)F)C3)ccc(C(=O)NC3(C)CSC3)c2o1` (centres unmarked) [A27] the “effect on mortality, feeding behavior” value was “little or no effect”. With `Cc1nc2c(C3=NOC(c4cc(Cl)cc(Cl)c4)(C(F)(F)F)C3)ccc(C(=O)NC3C[S+]([O-])C3)c2o1` (centres unmarked) [A28] the “effect on mortality, feeding behavior” value was “little or no effect”. `Cc1nc2c(C3=NOC(c4cc(Cl)cc(Cl)c4)(C(F)(F)F)C3)ccc(C(=O)NC3CSC3)c2o1` (centres unmarked) [A29] was tested, and the “effect on mortality, feeding behavior” value was “little or no effect”. For `CC1(NC(=O)c2cccc3c(C4=NOC(c5cc(Cl)cc(Cl)c5)(C(F)(F)F)C4)cccc23)CSC1` (centres unmarked) [A36], the “effect on mortality, feeding behavior” value was “little or no effect”. In the case of `Cc1cc(C2=NOC(c3cc(Cl)cc(Cl)c3)(C(F)(F)F)/C2=N/O)ccc1C(=O)NC1(C)CSC1` (centres unmarked) [A56], the “effect on mortality, feeding behavior” value is reported as “little or no effect”.

Source: patent US9216973B2, “Insecticidal compounds” (Syngenta Participations AG, priority 2008, dated 2015)
